Tested on: NCI-H1341 complex spheroids, percent test/control
Test: Anticancer human tumor NCI-H1341 cell line growth inhibition [AhR];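 also: spheroids exposed to agents for seven days before readout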
Settings: for IC50: curve of first compound; for viability, T/C: stronger effect = lower value
In short: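 Agents were dosed in half-log steps down from roughly clinical Cmax, or from 10 microM where Cmax was unknown, alone and with AhR antagonists. Read-out: percent test/control growth of tumor spheroids containing HUVEC and MSC stromal cells.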

[1] = second compound 0.1 µM, first compound 0.00949 µM
[2] = second compound 0.1 µM, first compound 0.03 µM
[3] = second compound 0.1 µM, first compound 0.0949 µM
[4] = second compound 0.1 µM, first compound 0.3 µM
[5] = second compound 0.316 µM, first compound 0.00949 µM
[6] = second compound 0.316 µM, first compound 0.03 µM
[7] = second compound 0.316 µM, first compound 0.0949 µM
[8] = second compound 0.316 µM, first compound 0.3 µM
[9] = second compound 1 µM, first compound 0.00949 µM
[10] = second compound 1 µM, first compound 0.03 µM
[11] = second compound 1 µM, first compound 0.0949 µM
[12] = second compound 1 µM, first compound 0.3 µM
[13] = second compound 3.16 µM, first compound 0.00949 µM
[14] = second compound 3.16 µM, first compound 0.03 µM
[15] = second compound 3.16 µM, first compound 0.0949 µM
[16] = second compound 3.16 µM, first compound 0.3 µM
[17] = second compound 10 µM, first compound 0.00949 µM
[18] = second compound 10 µM, first compound 0.03 µM
[19] = second compound 10 µM, first compound 0.0949 µM
[20] = second compound 10 µM, first compound 0.3 µM

`COc1ccc([C@@H](O)c2cc(-c3ncnc4cc(N5CCOCC5)ccc34)c(F)cc2Cl)nn1` + Cc1ccccc1N=Nc1ccc(NC(=O)c2ccnn2C)c(C)c1 showed an IC50 (second compound 0.1 µM) of 903 nM, an IC50 (second compound 0.316 µM) of 791 nM and an IC50 (second compound 1 µM) of 631 nM. For the same compound, the IC50 (second compound 3.16 µM) was 461 nM, the IC50 (second compound 10 µM) was < 31.6 nM and the viability, T/C (second compound 0.1 µM, first compound 0.0316 µM) was 98.3%. For the same compound, the viability, T/C (second compound 0.1 µM, first compound 0.1 µM) was 91.6%, the viability, T/C (second compound 0.1 µM, first compound 0.316 µM) was 70.8% and the viability, T/C (second compound 0.1 µM, first compound 1 µM) was 51.5%. It also gave a viability, T/C (second compound 0.1 µM, first compound 3.16 µM) of 19.3%, a viability, T/C (second compound 0.1 µM, first compound 10 µM) of 8.09% and a viability, T/C (second compound 0.316 µM, first compound 0.0316 µM) of 87.2%. For the same compound, the viability, T/C (second compound 0.316 µM, first compound 0.1 µM) was 68.9%, the viability, T/C (second compound 0.316 µM, first compound 0.316 µM) was 70.6% and the viability, T/C (second compound 0.316 µM, first compound 1 µM) was 46.4%. For the same compound, the viability, T/C (second compound 0.316 µM, first compound 3.16 µM) was 19.9%, the viability, T/C (second compound 0.316 µM, first compound 10 µM) was 8.42% and the viability, T/C (second compound 1 µM, first compound 0.0316 µM) was 75.3%. For the same compound, the viability, T/C (second compound 1 µM, first compound 0.1 µM) was 67.9%, the viability, T/C (second compound 1 µM, first compound 0.316 µM) was 62.8% and the viability, T/C (second compound 1 µM, first compound 1 µM) was 42%. It also gave a viability, T/C (second compound 1 µM, first compound 3.16 µM) of 21.6%, a viability, T/C (second compound 1 µM, first compound 10 µM) of 8.86% and a viability, T/C (second compound 3.16 µM, first compound 0.0316 µM) of 73%. For the same compound, the viability, T/C (second compound 3.16 µM, first compound 0.1 µM) was 59.9%, the viability, T/C (second compound 3.16 µM, first compound 0.316 µM) was 58.7% and the viability, T/C (second compound 3.16 µM, first compound 1 µM) was 38.5%. For the same compound, the viability, T/C (second compound 3.16 µM, first compound 3.16 µM) was 18%, the viability, T/C (second compound 3.16 µM, first compound 10 µM) was 5.82% and the viability, T/C (second compound 10 µM, first compound 0.0316 µM) was 47.2%. For the same compound, the viability, T/C (second compound 10 µM, first compound 0.1 µM) was 51.8%, the viability, T/C (second compound 10 µM, first compound 0.316 µM) was 39.3% and the viability, T/C (second compound 10 µM, first compound 1 µM) was 29.2%. For the same compound, the viability, T/C (second compound 10 µM, first compound 3.16 µM) was 14.3% and the viability, T/C (second compound 10 µM, first compound 10 µM) was 7.84%.

Compound `Nc1ncn(C2CC(O)C(CO)S2)c(=O)n1` (stereo not given) + Cc1ccccc1N=Nc1ccc(NC(=O)c2ccnn2C)c(C)c1 has an IC50 (second compound 0.1 µM) of 165 nM, an IC50 (second compound 0.316 µM) of 281 nM and an IC50 (second compound 1 µM) of 263 nM. It also gave an IC50 (second compound 3.16 µM) of 236 nM, an IC50 (second compound 10 µM) of 17.4 nM and a viability, T/C (second compound 0.1 µM, first compound 0.000949 µM) of 71.8%. The viability, T/C (second compound 0.1 µM, first compound 0.003 µM) was 84.3%, the viability, T/C [1] was 83.3% and the viability, T/C [2] was 65%. The viability, T/C [3] was 61.3%, the viability, T/C [4] was 40% and the viability, T/C (second compound 0.316 µM, first compound 0.000949 µM) was 78.8%. It also gave a viability, T/C (second compound 0.316 µM, first compound 0.003 µM) of 95%, a viability, T/C [5] of 93.2% and a viability, T/C [6] of 87.7%. For the same compound, the viability, T/C [7] was 78%, the viability, T/C [8] was 48.1% and the viability, T/C (second compound 1 µM, first compound 0.000949 µM) was 78.2%. It also gave a viability, T/C (second compound 1 µM, first compound 0.003 µM) of 85.8%, a viability, T/C [9] of 84.9% and a viability, T/C [10] of 81.3%. It also gave a viability, T/C [11] of 74.1%, a viability, T/C [12] of 46.8% and a viability, T/C (second compound 3.16 µM, first compound 0.000949 µM) of 88%. For the same compound, the viability, T/C (second compound 3.16 µM, first compound 0.003 µM) was 62.4%, the viability, T/C [13] was 66% and the viability, T/C [14] was 69.6%. It also gave a viability, T/C [15] of 62.6%, a viability, T/C [16] of 43.8% and a viability, T/C (second compound 10 µM, first compound 0.000949 µM) of 51.4%. It also gave a viability, T/C (second compound 10 µM, first compound 0.003 µM) of 54.6%, a viability, T/C [17] of 53% and a viability, T/C [18] of 45.8%. For the same compound, the viability, T/C [19] was 45.2% and the viability, T/C [20] was 34.9%.

`O=C(C=Cn1cnc(-c2cc(C(F)(F)F)cc(C(F)(F)F)c2)n1)NNc1cnccn1` + Cc1ccccc1N=Nc1ccc(NC(=O)c2ccnn2C)c(C)c1 showed an IC50 (second compound 0.1 µM) of 51.3 nM, an IC50 (second compound 0.316 µM) of 49.7 nM and an IC50 (second compound 1 µM) of 53.6 nM. For the same compound, the IC50 (second compound 3.16 µM) was < 9.49 nM, the IC50 (second compound 10 µM) was < 9.49 nM and the viability, T/C [1] was 85.4%. It also gave a viability, T/C [2] of 63.4%, a viability, T/C [3] of 35.2% and a viability, T/C [4] of 12.9%. It also gave a viability, T/C (second compound 0.1 µM, first compound 0.949 µM) of 8.66%, a viability, T/C (second compound 0.1 µM, first compound 3 µM) of 7.84% and a viability, T/C [5] of 69.5%. It also gave a viability, T/C [6] of 59%, a viability, T/C [7] of 38.3% and a viability, T/C [8] of 15.2%. The viability, T/C (second compound 0.316 µM, first compound 0.949 µM) was 9.67%, the viability, T/C (second compound 0.316 µM, first compound 3 µM) was 6.9% and the viability, T/C [9] was 67.7%. The viability, T/C [10] was 66.7%, the viability, T/C [11] was 34.5% and the viability, T/C [12] was 15.4%. It also gave a viability, T/C (second compound 1 µM, first compound 0.949 µM) of 8.51%, a viability, T/C (second compound 1 µM, first compound 3 µM) of 8.16% and a viability, T/C [13] of 47.9%. It also gave a viability, T/C [14] of 40.7%, a viability, T/C [15] of 30.6% and a viability, T/C [16] of 13.2%. For the same compound, the viability, T/C (second compound 3.16 µM, first compound 0.949 µM) was 11.4%, the viability, T/C (second compound 3.16 µM, first compound 3 µM) was 6.99% and the viability, T/C [17] was 40.7%. For the same compound, the viability, T/C [18] was 35%, the viability, T/C [19] was 24.2% and the viability, T/C [20] was 15.6%. It also gave a viability, T/C (second compound 10 µM, first compound 0.949 µM) of 10.8% and a viability, T/C (second compound 10 µM, first compound 3 µM) of 6.32%.
